{"source": "paper PMC9959817", "about": "“Flow-Based Fmoc-SPPS Preparation and SAR Study of Cathelicidin-PY Reveals Selective Antimicrobial Activity” (Molecules, 2023)", "key": {"[1]": {"tested_on": "C. albicans (SC5314)", "assay": "microbe, parasite or virus in culture", "format": "cell-based, Candida albicans", "settings": "SC5314; read-out: Minimum Inhibitory Concentration", "description": "(§1) As we were primarily interested in the clinical potential of cathelicidin-PY (1) and its analogues 2–9, cation-adjusted Mueller-Hinton broth (CAMHB) was implemented during our in vitro antimicrobial screening towards bacteria. However, non-cation adjusted Mueller Hinton broth (MHB) was also implemented to evaluate the cation sensitivity of these AMPs. In each medium, compounds 1–9 were subjected to minimum inhibitory concentration (MIC) assays with E. coli (ATCC 25922), P. aeruginosa (SVB-B9), and S. aureus (ATCC 29213), in accordance with CLSI microbroth dilution protocols (Table 1). It is noteworthy, however, that the initial report of cathelicidin-PY’s isolation documented MIC assays performed in Luria Broth (LB). Furthermore, antifungal activity towards C. albicans was investigated.\nAntimicrobial susceptibility of Candida albicans SC5314 (type strain) was assessed by broth microdilution in RPMI 1640 media in accordance with the CLSI recommended protocols. All assays were performed independently on three occasions, with the reported MIC defined as the lowest concentration for which agreement was observed consistently for all replicates."}, "[2]": {"tested_on": "Pseudomonas aeruginosa", "settings": "isolation report, assays in Luria Broth (LB); cited from earlier work", "description": "(§2) Furthermore, these have shown promising anti-inflammatory and specific immune modulatory capabilities in immunocytes, as well as antiviral activity against human immunodeficiency virus (HIV), influenza A virus (I ..."}, "[3]": {"tested_on": "Escherichia coli", "settings": "isolation report, assays in Luria Broth (LB); cited from earlier work", "description": "as §2"}, "[4]": {"tested_on": "Candida albicans", "settings": "isolation report; cited from earlier work", "description": "as §2"}, "[5]": {"tested_on": "Staphylococcus aureus", "settings": "isolation report, assays in Luria Broth (LB); cited from earlier work", "description": "as §2"}, "[6]": {"tested_on": "S. aureus (ATCC 29213)", "assay": "microbe, parasite or virus in culture", "format": "cell-based, Staphylococcus aureus", "settings": "ATCC 29213; read-out: Minimum Inhibitory Concentration", "description": "as §1\nStaphylococcus aureus ATCC 29213, Pseudomonas aeruginosa (SVB-B9) (type strain), and Escherichia coli ATCC 25,922 were grown in either non-cation-adjusted or cation-adjusted Mueller Hinton (MH) broth at 37 °C with shaking (200 rpm). MIC assays were performed in technical triplicate in accordance with the CLSI-recommended protocol. All assays were performed independently on three occasions, with the reported MIC defined as the lowest concentration for which agreement was observed consistently for all replicates."}}, "note": "Where a SMILES comes first, the peptide text is derived from it. Bridges are numbered along the chain shown (N, C = ends)."}
{"smiles": "CC[C@H](C)[C@H](NC(=O)[C@H](Cc1c[nH]cn1)NC(=O)[C@H](CO)NC(=O)[C@@H](NC(=O)[C@@H](NC(=O)[C@@H](NC(=O)[C@@H](NC(=O)[C@H](CCCNC(=N)N)NC(=O)[C@H](CC(C)C)NC(=O)[C@H](CCCCN)NC(=O)[C@H](CCC(=O)O)NC(=O)[C@H](CCCCN)NC(=O)[C@H](CC(C)C)NC(=O)[C@H](CCCCN)NC(=O)[C@@H]1CSSC[C@H](NC(=O)[C@H](CCCCN)NC(=O)[C@@H](N)CCCNC(=N)N)C(=O)N[C@@H](CC(N)=O)C(=O)N[C@@H](Cc2ccccc2)C(=O)N[C@@H](CC(C)C)C(=O)N1)[C@@H](C)O)C(C)C)[C@@H](C)CC)[C@@H](C)O)C(=O)N[C@@H](CC(=O)O)C(=O)N[C@@H](CCCCN)C(=O)N[C@H](C(=O)N[C@@H](CC(C)C)C(=O)N[C@@H](CCCNC(=N)N)C(=O)N1CCC[C@H]1C(=O)N[C@@H](CCC(N)=O)C(=O)NCC(=O)O)C(C)C", "note": "[Compound 1, Cathelicidin-PY] (H-RKCNFLCKLKEKLRTVITSHIDKVLRPQG-OH; disulfide 3-7)", "values": [{"measurement": "MIC", "setting": "[1]", "result": ">64", "unit": "µM"}, {"measurement": "MIC", "setting": "[2]", "result": 5.48, "unit": "µM"}, {"measurement": "MIC", "setting": "[3]", "result": 1.37, "unit": "µM"}, {"measurement": "MIC", "setting": "[4]", "result": 1.37, "unit": "µM"}, {"measurement": "MIC", "setting": "[5]", "result": 2.74, "unit": "µM"}, {"measurement": "MIC", "setting": "[6]", "result": ">64", "unit": "µM"}]}
